Assay results: PubChem BioAssay (NCI)
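48-hour exposure; five concentrations; linearly interpolated endpoints. At the TGI there is no net growth.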

Assays:
Assay in all cases: DTP human tumour cell line panel, 48 h
[1] = tested on: NCI-H460 lung
[2] = tested on: SF-268 CNS
[3] = tested on: U251 CNS
[4] = tested on: A549 NSCLC
[5] = tested on: HOP-92 NSCLC
[6] = tested on: MOLT-4 leukemia
[7] = tested on: MDA-MB-435
[8] = tested on: MCF7 breast
[9] = tested on: SK-MEL-28 melanoma
[10] = tested on: IGROV1 ovarian
[11] = tested on: ACHN renal
[12] = tested on: BT-549 breast
[13] = tested on: SNB-75 CNS
[14] = tested on: SR leukemia
[15] = tested on: SN12C renal

Structure (SMILES): C=C1C(=O)OC2/C=C(\C)CC/C=C(/C)CC(OC(=O)/C(=C/CO)CO)C12 (stereo not drawn)
- TGI [1]: > 100 µM
- TGI [2]: 77.5 µM
- TGI [3]: 47 µM
- TGI [4]: > 100 µM
- TGI [5]: 59.9 µM
- TGI [6]: > 100 µM
- TGI [7]: 82.5 µM
- TGI [8]: 48.7 µM
- TGI [9]: 77.2 µM
- TGI [10]: > 100 µM
- TGI [11]: 33.5 µM
- TGI [12]: 30.9 µM
- TGI [13]: > 100 µM
- TGI [14]: > 100 µM

Structure (SMILES): Cn1c(-c2ccccc2)cc(-c2ccc3c(c2)OCO3)c1-c1cccs1
- TGI [1]: > 100 µM
- TGI [2]: > 100 µM
- TGI [15]: > 100 µM
- TGI [3]: > 100 µM
- TGI [4]: > 100 µM
- TGI [5]: > 100 µM
- TGI [6]: > 100 µM
- TGI [7]: > 100 µM
- TGI [8]: > 100 µM
- TGI [9]: > 100 µM
- TGI [10]: > 100 µM
- TGI [11]: > 100 µM
- TGI [12]: > 100 µM
- TGI [13]: > 100 µM
- TGI [14]: > 100 µM

Structure (SMILES): NS(=O)(=O)c1ccc(NNC(=O)c2cccc3c(=O)c4ccccc4[nH]c23)cc1
- TGI [1]: > 100 µM
- TGI [2]: > 100 µM
- TGI [15]: > 100 µM
- TGI [3]: > 100 µM
- TGI [4]: > 100 µM
- TGI [5]: > 100 µM
- TGI [6]: > 100 µM
- TGI [7]: > 100 µM
- TGI [8]: > 100 µM
- TGI [9]: > 100 µM
- TGI [10]: > 100 µM
- TGI [11]: > 100 µM
- TGI [12]: > 100 µM
- TGI [13]: > 100 µM
- TGI [14]: > 100 µM

Structure (SMILES): O=C(ON=c1c2ccccc2ccc2ccccc12)c1cc([N+](=O)[O-])cc([N+](=O)[O-])c1
- TGI [1]: > 100 µM
- TGI [2]: > 100 µM
- TGI [15]: > 100 µM
- TGI [3]: > 100 µM
- TGI [4]: > 100 µM
- TGI [5]: > 100 µM
- TGI [6]: > 100 µM
- TGI [7]: > 100 µM
- TGI [8]: > 100 µM
- TGI [9]: > 100 µM
- TGI [10]: > 100 µM
- TGI [11]: > 100 µM
- TGI [12]: > 100 µM
- TGI [13]: > 100 µM
- TGI [14]: > 100 µM

Structure (SMILES): CC1=NN(c2nc(N)nc(CS(C)(=O)=O)n2)C(C)(C)C1
- TGI [1]: > 100 µM
- TGI [2]: > 100 µM
- TGI [3]: > 100 µM
- TGI [5]: > 100 µM
- TGI [6]: > 100 µM
- TGI [7]: > 100 µM
- TGI [8]: > 100 µM
- TGI [9]: > 100 µM
- TGI [10]: > 100 µM
- TGI [11]: > 100 µM
- TGI [12]: > 100 µM
- TGI [13]: > 100 µM
- TGI [14]: > 100 µM

Structure (SMILES): COC(=O)N1CC[C@@H]2CCC=C(c3cccc4c3OCO4)[C@@H]21
- TGI [1]: > 100 µM
- TGI [2]: > 100 µM
- TGI [15]: > 100 µM
- TGI [3]: > 100 µM
- TGI [4]: > 100 µM
- TGI [5]: > 100 µM
- TGI [6]: > 100 µM
- TGI [7]: > 100 µM
- TGI [8]: > 100 µM
- TGI [9]: > 100 µM
- TGI [10]: > 100 µM
- TGI [11]: > 100 µM
- TGI [12]: > 100 µM
- TGI [13]: 62 µM
- TGI [14]: > 100 µM

Structure (SMILES): Cc1nn2c(N)cc(=O)nc2nc1/C=C/c1ccc(N(C)C)cc1
- TGI [1]: > 100 µM
- TGI [2]: > 100 µM
- TGI [15]: > 100 µM
- TGI [3]: > 100 µM
- TGI [4]: > 100 µM
- TGI [5]: > 43.6 µM
- TGI [6]: > 100 µM
- TGI [7]: > 100 µM
- TGI [8]: > 100 µM
- TGI [9]: > 100 µM
- TGI [10]: > 100 µM
- TGI [11]: > 100 µM
- TGI [12]: > 100 µM
- TGI [14]: > 100 µM

Structure (SMILES): Oc1c(C(O)(c2ccccc2)c2ccc3ccccc3c2O)ccc2ccccc12
- TGI [1]: 22.3 µM
- TGI [2]: 28.4 µM
- TGI [15]: 23.1 µM
- TGI [3]: 21.8 µM
- TGI [4]: 30.4 µM
- TGI [5]: 24.1 µM
- TGI [6]: 5.56 µM
- TGI [7]: 40.6 µM
- TGI [8]: 24 µM
- TGI [9]: 33.3 µM
- TGI [10]: 24.7 µM
- TGI [11]: 23.3 µM
- TGI [12]: 42.3 µM
- TGI [13]: 34.5 µM
- TGI [14]: 10.7 µM

Structure (SMILES): Cc1cccc2c1Oc1cc(Cl)ccc1C2NC(=O)CCN1CCCCC1 (stereo not drawn)
- TGI [1]: 31.6 µM
- TGI [2]: 83.2 µM
- TGI [15]: 33 µM
- TGI [3]: 29.5 µM
- TGI [4]: 37.5 µM
- TGI [5]: 10.1 µM
- TGI [6]: 34.3 µM
- TGI [7]: 30.7 µM
- TGI [8]: 33.6 µM
- TGI [9]: 29.2 µM
- TGI [12]: 33.4 µM
- TGI [13]: 28.1 µM
- TGI [14]: 35 µM

Structure (SMILES): CCOC(=O)c1ccc(N=C2SC(=S)N(c3ccc(F)cc3)C2=Nc2ccc(C(=O)OCC)cc2)cc1
- TGI [1]: > 100 µM
- TGI [2]: > 37.6 µM
- TGI [15]: 33.6 µM
- TGI [3]: 44.2 µM
- TGI [4]: > 84.9 µM
- TGI [5]: 26 µM
- TGI [6]: 35.1 µM
- TGI [7]: 40.7 µM
- TGI [8]: 42.2 µM
- TGI [9]: 42.3 µM
- TGI [10]: 30.8 µM
- TGI [11]: 29.4 µM
- TGI [12]: 40.6 µM
- TGI [13]: 52.4 µM
- TGI [14]: 29.3 µM

Structure (SMILES): CN1CN(c2ccccc2)C2(CCNCC2)C1=O
- TGI [1]: > 100 µM
- TGI [2]: > 100 µM
- TGI [15]: > 100 µM
- TGI [3]: > 100 µM
- TGI [4]: > 100 µM
- TGI [5]: > 100 µM
- TGI [6]: > 100 µM
- TGI [7]: > 100 µM
- TGI [8]: > 100 µM
- TGI [9]: > 100 µM
- TGI [10]: > 100 µM
- TGI [11]: > 100 µM
- TGI [12]: > 100 µM
- TGI [13]: > 100 µM
- TGI [14]: > 100 µM

Structure (SMILES): CC(C)(C)OC(=O)N1C(C2=COc3ccccc3O2)=COc2ccccc21
- TGI [1]: > 100 µM
- TGI [2]: 64.4 µM
- TGI [15]: > 100 µM
- TGI [3]: > 100 µM
- TGI [4]: > 100 µM
- TGI [5]: 73.2 µM
- TGI [6]: 54 µM
- TGI [7]: > 100 µM
- TGI [8]: 60.2 µM
- TGI [9]: 87.5 µM
- TGI [10]: > 100 µM
- TGI [11]: 75.3 µM
- TGI [12]: 71.4 µM
- TGI [13]: > 100 µM
- TGI [14]: 53.3 µM

Structure (SMILES): C/C(Cl)=N\OC(=O)Nc1ccc([N+](=O)[O-])cc1
- TGI [1]: 38.8 µM
- TGI [2]: 41.8 µM
- TGI [15]: 35.1 µM
- TGI [3]: 33.8 µM
- TGI [4]: 47.5 µM
- TGI [5]: 5.65 µM
- TGI [6]: 3.97 µM
- TGI [7]: 32.9 µM
- TGI [8]: 5.73 µM
- TGI [9]: 31.5 µM
- TGI [10]: 38.5 µM
- TGI [11]: 9.2 µM
- TGI [12]: 66.7 µM
- TGI [13]: 31.4 µM
- TGI [14]: 74.2 µM

Structure (SMILES): Clc1cc2nc(C3CCCO3)[nH]c2cc1Cl (stereo not drawn)
- TGI [2]: > 100 µM
- TGI [15]: > 100 µM
- TGI [3]: > 100 µM
- TGI [4]: > 100 µM
- TGI [5]: > 100 µM
- TGI [6]: > 100 µM
- TGI [7]: > 100 µM
- TGI [8]: > 100 µM
- TGI [9]: > 100 µM
- TGI [10]: > 100 µM
- TGI [11]: > 100 µM
- TGI [12]: 91.3 µM
- TGI [13]: > 100 µM
- TGI [14]: > 100 µM

Structure (SMILES): COc1ccc2c(c1)/C(=C(\C(Cl)=C(\Cl)N1CCCCC1)[N+](=O)[O-])N2
- TGI [1]: > 100 µM
- TGI [2]: > 100 µM
- TGI [15]: > 100 µM
- TGI [3]: > 100 µM
- TGI [4]: > 100 µM
- TGI [5]: > 100 µM
- TGI [6]: > 100 µM
- TGI [7]: > 100 µM
- TGI [8]: > 100 µM
- TGI [9]: > 100 µM
- TGI [10]: > 100 µM
- TGI [11]: > 100 µM
- TGI [12]: > 100 µM
- TGI [13]: > 100 µM
- TGI [14]: > 100 µM
